{
  "source": "paper PMC6720345",
  "about": "“Five New Cucurbitane-Type Triterpenoid Glycosides from the Rhizomes of Hemsleya penxianensis with Cytotoxic Activities” (Molecules, 2019)",
  "key": {"breast cancer MCF-7": {"system": "breast cancer MCF-7", "assay": "MTT cytotoxicity assay, MCF-7 cells", "details": "Homo sapiens, read-out: Cytotoxicity IC50 MCF-7", "description": "(§1) This used the MTT method as described in previously published literature [16, 17]. Briefly, the cells, at a density of 1.1 × 10^5 cells/mL in 96-well microtiter plate, were cultured in DMEM medium with 10% fetal bovine serum at 37 °C in a 5% CO2 incubator overnight. Then, the cells were treated with the test compounds at five concentrations in triplicate. After 24 h and 48 h of treatment, the cells were incubated with 10 μL of MTT (4 mg/mL) for another 4 h. The residual liquid was removed, and 200 µL DMSO was added. The absorbance was tested using a microplate reader at a wavelength of 570 nm."}, "in vitro": {"assay": "in vitro", "details": "human", "description": "as §1"}, "Hela": {"system": "Hela", "assay": "MTT cytotoxicity assay, Hela cells", "details": "Homo sapiens, read-out: Cytotoxicity IC50 Hela", "description": "as §1"}, "lung cancer A-549": {"system": "lung cancer A-549", "assay": "MTT cytotoxicity assay, A-549 cells", "details": "Homo sapiens, read-out: Cytotoxicity IC50 A-549", "description": "as §1"}, "[1]": {"system": "three human tumor cell lines (Hela, MCF-7, and A-549)", "assay": "MTT cytotoxicity assay, stated over the three tumor cell lines together", "type": "cell-based", "details": "read-out: IC50 values against Hela, MCF-7, and A-549 cell lines (span over the three lines)", "description": "as §1"}},
  "note": "Where two headings read alike, the source gives them in different places.",
  "data": [
    {"smiles": "C/C(=C\\CC[C@@H](C)C1CC[C@@]2(C)[C@@H]3CC=C4[C@@H](CCC(O[C@@H]5O[C@H](CO)[C@@H](O)[C@H](O)[C@H]5O)C4(C)C)[C@]3(C)C(O)C[C@]12C)CO", "note": "(stereo partly drawn) [Compound 4, 11α, 26-dihydroxycucurbita-5, 24(E)-diene-3-O-β-D-glucopyranoside]", "values": [
      {"measurement": "IC50", "setting": "breast cancer MCF-7; MCF7, 24 h", "result": "25.4 ± 3.15", "unit": "µM"},
      {"measurement": "IC50", "setting": "breast cancer MCF-7; MCF7, 48 h", "result": "12.5 ± 1.32", "unit": "µM"},
      {"measurement": "IC50 at 24 h", "setting": "in vitro", "result": "> 100", "unit": "µM"},
      {"measurement": "IC50 at 48 h", "setting": "in vitro", "result": "89.5 ± 4.6", "unit": "µM"},
      {"measurement": "IC50", "setting": "Hela; 24 h", "result": "25.4 ± 3.72", "unit": "µM"},
      {"measurement": "IC50", "setting": "Hela; 48 h", "result": "14.8 ± 2.15", "unit": "µM"},
      {"measurement": "IC50", "setting": "lung cancer A-549; A549, 24 h", "result": "40.2 ± 3.02", "unit": "µM"},
      {"measurement": "IC50", "setting": "lung cancer A-549; A549, 48 h", "result": "18.7 ± 2.35", "unit": "µM"},
      {"measurement": "IC50", "setting": "[1]; 48 h treatment", "result": "7.55 to 18.7", "unit": "µM"}
    ]},
    {"smiles": "COc1cccc2c1C(=O)c1c(O)c3c(c(O)c1C2=O)C[C@@](O)(C(=O)CO)C[C@@H]3O[C@H]1C[C@H](N)[C@H](O)[C@H](C)O1", "note": "[doxorubicin, reference compound]", "values": [
      {"measurement": "IC50", "setting": "breast cancer MCF-7; MCF7, 24 h", "result": "3.02 ± 0.04", "unit": "µM"},
      {"measurement": "IC50", "setting": "breast cancer MCF-7; MCF7, 48 h", "result": "2.45 ± 0.05", "unit": "µM"},
      {"measurement": "IC50 at 24 h", "setting": "in vitro; normal liver L-02 cells", "result": "26.6 ± 1.35", "unit": "µM"},
      {"measurement": "IC50 at 48 h", "setting": "in vitro; normal liver L-02 cells", "result": "15.4 ± 0.28", "unit": "µM"},
      {"measurement": "IC50", "setting": "lung cancer A-549; A549, 24 h", "result": "6.1 ± 0.26", "unit": "µM"},
      {"measurement": "IC50", "setting": "lung cancer A-549; A549, 48 h", "result": "3.85 ± 0.05", "unit": "µM"}
    ]},
    {"smiles": "CC(=CC1CC(C)(O)C2C(CC3(C)C4CC=C5C(CC(O)C(O)C5(C)C)C4(C)C(=O)CC23C)O1)COC1OC(CO)C(O)C(O)C1O", "note": "[Compound 1, 2β, 3α, 20β-trihydroxycucurbita-16α-23α-epoxy-5, 24(E)-diene-11-one-26-O-D-glucopyranoside]", "values": [
      {"measurement": "IC50", "setting": "breast cancer MCF-7; MCF7, 24 h", "result": "57.9 ± 5.16", "unit": "µM"},
      {"measurement": "IC50", "setting": "breast cancer MCF-7; MCF7, 48 h", "result": "45.1 ± 3.52", "unit": "µM"},
      {"measurement": "IC50 at 24 h", "setting": "in vitro", "result": "> 100", "unit": "µM"},
      {"measurement": "IC50 at 48 h", "setting": "in vitro", "result": "> 100", "unit": "µM"},
      {"measurement": "IC50", "setting": "Hela; 24 h", "result": "50.6 ± 4.28", "unit": "µM"},
      {"measurement": "IC50", "setting": "Hela; 48 h", "result": "34.4 ± 2.05", "unit": "µM"},
      {"measurement": "IC50", "setting": "lung cancer A-549; A549, 24 h", "result": "68.8 ± 4.33", "unit": "µM"},
      {"measurement": "IC50", "setting": "lung cancer A-549; A549, 48 h", "result": "49.4 ± 2.67", "unit": "µM"},
      {"measurement": "IC50", "setting": "[1]; treatment time not given", "result": "> 30", "unit": "µM"}
    ]},
    {"smiles": "C/C(=C\\C1C[C@](C)(O)C2[C@@H](C[C@@]3(C)[C@@H]4CC=C5[C@@H](CC[C@H](O)C5(C)C)[C@]4(C)C(=O)C[C@]23C)O1)CO[C@@H]1O[C@H](CO)[C@@H](O)[C@H](O)[C@H]1O", "note": "(stereo partly drawn) [Compound 2, 3β, 20β-dihydroxycucurbita-16α-23α-epoxy-5, 24(E)-diene-11-one-26-O-D-glucopyranoside]", "values": [
      {"measurement": "IC50", "setting": "breast cancer MCF-7; MCF7, 24 h", "result": "60.7 ± 4.73", "unit": "µM"},
      {"measurement": "IC50", "setting": "breast cancer MCF-7; MCF7, 48 h", "result": "45.9 ± 0.92", "unit": "µM"},
      {"measurement": "IC50 at 24 h", "setting": "in vitro", "result": "> 100", "unit": "µM"},
      {"measurement": "IC50 at 48 h", "setting": "in vitro", "result": "> 100", "unit": "µM"},
      {"measurement": "IC50", "setting": "Hela; 24 h", "result": "40.3 ± 2.56", "unit": "µM"},
      {"measurement": "IC50", "setting": "Hela; 48 h", "result": "31.8 ± 1.45", "unit": "µM"},
      {"measurement": "IC50", "setting": "lung cancer A-549; A549, 24 h", "result": "80.7 ± 5.16", "unit": "µM"},
      {"measurement": "IC50", "setting": "lung cancer A-549; A549, 48 h", "result": "47.6 ± 0.84", "unit": "µM"},
      {"measurement": "IC50", "setting": "[1]; treatment time not given", "result": "> 30", "unit": "µM"}
    ]},
    {"smiles": "C/C(=C\\CC[C@@H](C)C1CC[C@@]2(C)[C@@H]3CC=C4[C@@H](CCC(O[C@@H]5O[C@H](CO)[C@@H](O)[C@H](O)[C@H]5O)C4(C)C)[C@]3(C)C(=O)C[C@]12C)CO", "note": "(stereo partly drawn) [Compound 3, 26-hydroxycucurbita-5, 24(E)-diene-11-one-3-O-β-D-glucopyranoside]", "values": [
      {"measurement": "IC50", "setting": "breast cancer MCF-7; MCF7, 24 h", "result": "26.1 ± 1.22", "unit": "µM"},
      {"measurement": "IC50", "setting": "breast cancer MCF-7; MCF7, 48 h", "result": "10.9 ± 2.77", "unit": "µM"},
      {"measurement": "IC50 at 24 h", "setting": "in vitro", "result": "> 100", "unit": "µM"},
      {"measurement": "IC50 at 48 h", "setting": "in vitro", "result": "68.2 ± 3.78", "unit": "µM"},
      {"measurement": "IC50", "setting": "Hela; 24 h", "result": "13.2 ± 1.88", "unit": "µM"},
      {"measurement": "IC50", "setting": "Hela; 48 h", "result": "7.55 ± 1.75", "unit": "µM"},
      {"measurement": "IC50", "setting": "lung cancer A-549; A549, 24 h", "result": "20.1 ± 1.08", "unit": "µM"},
      {"measurement": "IC50", "setting": "lung cancer A-549; A549, 48 h", "result": "8.55 ± 1.78", "unit": "µM"},
      {"measurement": "IC50", "setting": "[1]; 48 h treatment", "result": "7.55 to 18.7", "unit": "µM"}
    ]},
    {"smiles": "C[C@H](CCC=C(CO)CO)C1CC[C@@]2(C)[C@@H]3C(=O)C=C4[C@@H](CCC(O[C@@H]5O[C@H](CO)[C@@H](O)[C@H](O)[C@H]5O)C4(C)C)[C@]3(C)C(=O)C[C@]12C", "note": "(stereo partly drawn) [Compound 5, 26, 27-dihydroxycucurbita-5,24(E)-diene-7,11-dione-3-O-β-D-glucopyranoside]", "values": [
      {"measurement": "IC50", "setting": "breast cancer MCF-7; MCF7, 24 h", "result": "12.7 ± 2.36", "unit": "µM"},
      {"measurement": "IC50", "setting": "breast cancer MCF-7; MCF7, 48 h", "result": "4.72 ± 0.54", "unit": "µM"},
      {"measurement": "IC50 at 24 h", "setting": "in vitro", "result": "> 100", "unit": "µM"},
      {"measurement": "IC50 at 48 h", "setting": "in vitro", "result": "50.5 ± 2.15", "unit": "µM"},
      {"measurement": "IC50", "setting": "Hela; 24 h", "result": "4.88 ± 1.05", "unit": "µM"},
      {"measurement": "IC50", "setting": "Hela; 48 h", "result": "2.25 ± 0.42", "unit": "µM"},
      {"measurement": "IC50", "setting": "lung cancer A-549; A549, 24 h", "result": "12.5 ± 1.28", "unit": "µM"},
      {"measurement": "IC50", "setting": "lung cancer A-549; A549, 48 h", "result": "5.33 ± 0.68", "unit": "µM"},
      {"measurement": "IC50", "setting": "[1]; 48 h treatment", "result": "2.25 to 5.33", "unit": "µM"}
    ]}
  ]
}
